In patent US20240174684A1, “INHIBITORS OF cGAS ACTIVITY AS THERAPEUTIC AGENTS” (BELLBROOK LABS, LLC, priority 2021, published 2024):
Values after ≈ are worked out from the molar mass of the structure shown. Where two headings read alike, the source gives them in different places.

What was measured:
MDR1 (P-glycoprotein) = experiment: MDCK-MDR1 permeability A→B; assay type: in vitro ADME, Canine; conditions: dog; MDCK cells expressing human MDR1, A→B; read-out: MDCK-MDR Permeability A→B
Summary of the method: (§1)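 Permeability measured apical-to-basolateral in MDCK cells expressing human MDR1, reported as binned ranges in cm/s×10^−6. Metabolic stability determined as half-life in mouse and human hepatocytes, reported as binned ranges in minutes.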

[1] = Metabolic stability in mouse hepatocytes; assay type: in vitro ADME; conditions: read-out: Mouse MS Stability t1/2
Protocol: (§2) ADME studies: Compound A and the compounds of the disclosure were tested for aqueous solubility (KSOL), metabolic stability (human and mouse […]) and permeability (Caco-2 and/or MDR1-MDCK cells) to provide an initial indication of oral bioavailability.
(§3) The favorable physicochemical properties are reflected in promising results in in vitro ADME tests. […] Metabolic stability, which was routinely measured with mouse and human hepatocytes, is outstanding, with t, greater than 2 hours for all of the compounds of the disclosure in which it has been measured. Cell permeability was measured using MDCK cells expressing human MDR1 (P-glycoprotein) to assess passive permeability as well as active transport out of the cell. […] Numerous compounds in Table 1 meet these permeability criteria, which is consistent with their design for TPSA <140 Å^2 and increased lipophilicity.
(§4) The MDCK-MDR1 permeability A ->B is shown in Table 2 below, where A represents 5-10 cm/s×10^−6; B represents 1-5 cm/s×10^−6; and C represents <1 cm/ss×10^−6. The metabolic stability half time, in both mouse and human hepatocytes, is also shown in Table 2 below, where A′ represents 100-200 minutes; B′ represents 200-300 minutes; and C′ represents >300 minutes.

[2] = Metabolic stability in human hepatocytes; assay type: in vitro ADME; conditions: read-out: Human MS Stability t1/2
Protocol: as §2, §3, §4

[3] = Kinetic aqueous solubility (KSOL) in PBS, pH 7.4; assay type: physicochemical; conditions: aqueous buffer, kinetic from dmso stock
Protocol: as §2, §3

cGAS = cGAS (Homo sapiens, UniProt Q8N884); experiment: Transcreener cGAS enzymatic assay (FP); assay type: biochemical
Summary of the method: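 Human cGAS (30 nm) inhibition, 60 min reactions, FP read-out, standard conditions 100 μM ATP and GTP plus 62.5 nM bp ISD. Also run at 1 mM ATP and GTP (physiological), with 200 μM MnCl2, and with mouse cGAS under standard conditions; IC50 reported.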

[4] = tested on: IFNβ production in THP-1 cells; experiment: IFNβ ELISA in THP-1 cells; assay type: cell-based, human; conditions: Homo sapiens; THP-1 cells
Summary of the method: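 THP-1 cells stimulated with dsDNA or cGAMP (STING activation bypassing cGAS) in the presence of compound; IFNβ secreted into medium quantified by ELISA. IC50 values reported in potency bins.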

[5] = tested on: MDCK cells expressing human MDR1 (P-glycoprotein); experiment: MDCK-MDR1 permeability A→B; assay type: in vitro ADME, Canine
Summary of the method: as §1

[6] = tested on: IFN-β production in PBMCs; experiment: IFNβ ELISA in human primary PBMCs; assay type: cell-based; conditions: PBMC
Excerpt: Cellular assays: The human monocyte cell line THP-1 and human primary PBMCs were used to evaluate the cellular activity of compounds with good biochemical potency. These cells produce a robust cGAS/STING-dependent type I IFN response when stimulated with dsDNA and other pathogen-associated molecular patterns, which was detected using a standard ELISA for IFNβ (R&D Systems). The TBK1 inhibitor, BX-795, which acts downstream of cGAS/STING, was used as a probe.
The ICso values for IFNB ELISA stimulated with THP-1, PBMC, DNA, and cGAMP were determined for several exemplary compounds of the invention, and are provided in Table 3 where A represents <1 μM; B represents 1-2.5 μM; C represents 2.5-10 μM; D represents 10-20 μM; and E represents >20 μM.
The reporter gene assays were used to assess off-target activity with IRF30Luc (RIG-1) or NFKB (TLR4); CellTiter Glo (ATP levels) and Presto Blue (reducing equivalents) were used to assess cytotoxicity; all assays were performed in dose response mode. […] The inventors recently began using human PBMCs to assess cellular potency in a more physiologically relevant context.

[7] = high ATP and GTP (1 mM) to mimic physiological conditions, read-out: IC50 FP Physiological
[8] = standard conditions: 100 μM ATP and GTP, 62.5 nM bp ISD, 60 minute reactions, read-out: IC50 FP Standard

Sequence of cGAS (Q8N884 whole entry): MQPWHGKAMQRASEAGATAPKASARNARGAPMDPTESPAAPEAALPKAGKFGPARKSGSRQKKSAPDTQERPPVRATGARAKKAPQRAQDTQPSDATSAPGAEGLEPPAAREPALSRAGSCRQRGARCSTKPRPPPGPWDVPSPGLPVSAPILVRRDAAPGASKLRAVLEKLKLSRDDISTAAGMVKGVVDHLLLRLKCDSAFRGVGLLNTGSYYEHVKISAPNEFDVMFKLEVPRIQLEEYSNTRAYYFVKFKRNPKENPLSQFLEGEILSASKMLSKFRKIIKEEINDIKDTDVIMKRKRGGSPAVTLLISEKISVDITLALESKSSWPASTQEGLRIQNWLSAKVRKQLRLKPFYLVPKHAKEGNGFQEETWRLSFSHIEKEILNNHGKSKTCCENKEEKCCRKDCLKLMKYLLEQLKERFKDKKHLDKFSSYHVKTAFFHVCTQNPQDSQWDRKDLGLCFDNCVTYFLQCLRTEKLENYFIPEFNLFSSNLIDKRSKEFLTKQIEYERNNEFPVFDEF

Compound	Papp A→B (MDR1 (P-glycoprotein)) [×10⁻⁶ cm/s]	half-life [1] [h]	half-life [2] [h]	solubility kinetic [3] [µM]	IC50 (cGAS; [7]) [µM]	IC50 (cGAS; [8]) [µM]	IC50 [4] [µM]	MDCK-MDR Permeability A→B [5]	IC50 [6] [µM]
Cc1nc(N2C[C@@H](CC(=O)Nc3ccc4[nH]ccc4c3)C[C@H]2C(=O)O)c2oc3ccccc3c2n1 [Compound 1, (2S,4R)-4-(2-((1H-indol-5-yl)amino)-2-oxyethyl)-1-(2-methylbenzofuro[3,2-d]pyrimidin-4-yl)pyrrolidine-2-carboxylic acid]	1 to 5	1.67 to 3.33	> 5	487 (≈ 229 µg/mL)	1 to 5	0.05 to 0.1	2.5 to 10	–	–
Cc1nc(N2C[C@@H](CC(=O)N(C)C3CCCC3)C[C@H]2C(=O)O)c2oc3ccccc3c2n1 [Compound 2, (2S,4R)-4-(2-(cyclopentyl(methyl)amino)-2-oxoethyl)-1-(2-methylbenzofuro[3,2-d]pyrimidin-4-yl)pyrrolidine-2-carboxylic acid]	–	> 5	> 5	506 (≈ 221 µg/mL)	0.5 to 1	0.05 to 0.1	> 20	C (C represents <1 cm/ss×10^−6)	–
Cc1nc(N2C[C@@H](CC(=O)Nc3ccc4[nH]ncc4c3)C[C@H]2C(=O)O)c2oc3ccccc3c2n1 [Compound 3, (2S,4R)-4-(2-((1H-indazol-5-yl)amino)-2-oxyethyl)-1-(2-methylbenzofuro[3,2-d]pyrimidin-4-yl)pyrrolidine-2-carboxylic acid]	–	> 5	–	496 (≈ 233 µg/mL)	> 5	1 to 10	10 to 20	C (C represents <1 cm/ss×10^−6)	–
COc1cc(NC(=O)C[C@H]2C[C@@H](C(=O)O)N(c3nc(C)nc4c3oc3ccccc34)C2)ccn1 [Compound 6, (2S,4R)-4-(2-((2-methoxypyridin-4-yl)amino)-2-oxoethyl)-1-(2-methylbenzofuro[3,2-d]pyrimidin-4-yl)pyrrolidine-2-carboxylic acid]	–	> 5	> 5	496 (≈ 229 µg/mL)	1 to 5	0.05 to 0.1	2.5 to 10	C (C represents <1 cm/ss×10^−6)	–
Cc1nc(N2C[C@@H](CC(=O)Nc3ccc(N4CCCCC4)cc3)C[C@H]2C(=O)O)c2oc3ccccc3c2n1 [Compound 7, (2S,4R)-1-(2-methylbenzofuro[3,2-d]pyrimidin-4-yl)-4-(2-oxo-2-((4-(piperidin-1-yl)phenyl)amino)ethyl)pyrrolidine-2-carboxylic acid]	1 to 5	–	–	–	1 to 5	0.2 to 1	10 to 20	–	10 to 20
Cc1nc(N2C[C@@H](CC(=O)Nc3ccc(OC(F)(F)F)cc3)C[C@H]2C(=O)O)c2oc3ccccc3c2n1 [Compound 12, (2S,4R)-1-(2-methylbenzofuro[3,2-d]pyrimidin-4-yl)-4-(2-oxo-2-((4-(trifluoromethoxy)phenyl)amino)ethyl)pyrrolidine-2-carboxylic acid]	5 to 10	–	–	–	> 5	0.2 to 1	1 to 2.5	–	2.5 to 10
Cc1nc(N2C[C@@H](CC(=O)Nc3cccc(Cl)c3)C[C@H]2C(=O)O)c2oc3ccccc3c2n1 [Compound 22, (2S,4R)-4-(2-((3-chlorophenyl)amino)-2-oxoethyl)-1-(2-methylbenzofuro[3,2-d]pyrimidin-4-yl)pyrrolidine-2-carboxylic acid]	1 to 5	–	–	–	1 to 5	0.1 to 0.2	2.5 to 10	–	10 to 20
Cc1nc(N2C[C@@H](CC(=O)Nc3ccc(C(F)(F)F)cc3)C[C@H]2C(=O)O)c2oc3ccccc3c2n1 [Compound 24, (28.4R)-1-(2-methylbenzofuro[3,2-d]pyrimidin-4-yl)-4-(2-oxo-2-((4-(trifluoromethyl)phenyl)amino)ethyl)pyrrolidine-2-carboxylic acid]	1 to 5	–	–	–	1 to 5	0.2 to 1	10 to 20	–	10 to 20
Cc1nc(N2C[C@@H](CC(=O)Nc3ccc4ncccc4c3)C[C@H]2C(=O)O)c2oc3ccccc3c2n1 [Compound 32, (2S,4R)-1-(2-methylbenzofuro[3,2-d]pyrimidin-4-yl)-4-(2-oxo-2-(quinolin-6-ylamino)ethyl)pyrrolidine-2-carboxylic acid]	–	3.33 to 5	> 5	527 (≈ 254 µg/mL)	1 to 5	0.05 to 0.1	2.5 to 10	C (C represents <1 cm/ss×10^−6)	10 to 20
Cc1nc(N2C[C@@H](CC(=O)Nc3ccc4cnccc4c3)C[C@H]2C(=O)O)c2oc3ccccc3c2n1 [Compound 33, (2S,4R)-4-(2-(isoquinolin-6-ylamino)-2-oxoethyl)-1-(2-methylbenzofuro[3,2-d]pyrimidin-4-yl)pyrrolidine-2-carboxylic acid]	–	–	–	–	1 to 5	0.1 to 0.2	2.5 to 10	C (C represents <1 cm/ss×10^−6)	10 to 20
Cc1nc(N2C[C@@H](CC(=O)Nc3ccc4ccncc4c3)C[C@H]2C(=O)O)c2oc3ccccc3c2n1 [Compound 34, (28.4R)-4-(2-(isoquinolin-7-ylamino)-2-oxoethyl)-1-(2-methylbenzofuro[3,2-d]pyrimidin-4-yl)pyrrolidine-2-carboxylic acid]	1 to 5	–	–	–	0.2 to 0.5	< 0.05	2.5 to 10	–	2.5 to 10
Cc1nc(N2C[C@@H](CC(=O)Nc3ccc4cccnc4c3)C[C@H]2C(=O)O)c2oc3ccccc3c2n1 [Compound 35, (28,4R)-1-(2-methylbenzofuro[3,2-d]pyrimidin-4-yl)-4-(2-oxo-2-(quinolin-7-ylamino)ethyl)pyrrolidine-2-carboxylic acid]	1 to 5	–	–	–	0.5 to 1	< 0.05	2.5 to 10	–	2.5 to 10
Cc1nc(N2C[C@@H](CC(=O)Nc3ccc(-c4cccnc4)cc3)C[C@H]2C(=O)O)c2oc3ccccc3c2n1 [Compound 37, (2S,4R)-1-(2-methylbenzofuro[3,2-d]pyrimidin-4-yl)-4-(2-oxo-2-((4-(pyridin-3-yl)phenyl)amino)ethyl)pyrrolidine-2-carboxylic acid]	–	3.33 to 5	> 5	547 (≈ 278 µg/mL)	< 0.2	< 0.05	1 to 2.5	C (C represents <1 cm/ss×10^−6)	1 to 2.5
Cc1nc(N2C[C@@H](CC(=O)Nc3ccc(-c4ccc5[nH]ncc5c4)cc3)C[C@H]2C(=O)O)c2oc3ccccc3c2n1 [Compound 38, (2S,4R)-4-(2-((4-(1H-indazol-5-yl)phenyl)amino)-2-oxoethyl)-1-(2-methylbenzofuro[3,2-d]pyrimidin-4-yl)pyrrolidine-2-carboxylic acid]	–	> 5	1.67 to 3.33	84 (≈ 45.9 µg/mL)	0.2 to 0.5	< 0.05	1 to 2.5	C (C represents <1 cm/ss×10^−6)	2.5 to 10
